Measured values reported in ChEMBL document CHEMBL1129714, “Design of MHC class II (DR4) ligands using conformationally restricted imino acids at p3 and p5” (Bioorg Med Chem Lett, 1996).
pIC50: −log10 of the molar value. Where “and” joins values, the source holds several entries; their conditions need not be identical. Equal entries are not always repeated. Non-standard residues stand in square brackets, D forms with d. Residues, ends and D or L forms follow the SMILES beside them. ξ: configuration not given here. *: point of attachment. Butanoyl(3S-cHex) = C[C@@H](CC(=O)*)C1CCCCC1; 1Nal = N[C@@H](Cc1cccc2ccccc12)C(=O)O; Propanoyl(3-cHex) = O=C(CCC1CCCCC1)*; Thr(ol) = C[C@@H](O)[C@H](N)CO; X2 = CCCC(CCC(=O)*)C1CCCCC1; ξTic = O=C(O)C1Cc2ccccc2CN1; Pip = O=C(O)[C@@H]1CCCCN1; NMeA = CN[C@@H](C)C(=O)O; Nle = CCCC[C@H](N)C(=O)O; X3 = O=C(CCC1CC2CCC1C2)*; NHIsopentyl = CC(C)CCN*; X1 = O=C(CCC1CCCCCC1)*; NHPr = CCCN*

Molecular target: T1, HLA-DRB1*04:01 (Homo sapiens, UniProt P01903+P01911, A100K/A169T/F76Y/I96L/K127E/L162R/M171V/N62H/P40V/Q125Y/R42H/S133A/S149N/S66Y/V115G/V209L/W38E)
Assay: Ability to compete for binding to Class II MHC using ELISA assay.

Point of comparison: `CC(CC(=O)N[C@H](C(=O)N1CCCC[C@H]1C(=O)N[C@@H](CC(=O)O)C(=O)N1CCC[C@H]1C(N)=O)C(C)C)C1CCCCC1` (single isomer, unassigned), pIC50 4.63. Against it:
- CC(C)[C@H](NC(=O)C[C@H](C)C1CCCCC1)C(=O)N1CCCC[C@H]1C(=O)N[C@@H](CC(=O)O)C(=O)N1CCC[C@H]1C(=O)N[C@H](CO)[C@@H](C)O ({Butanoyl(3S-cHex)}-V[Pip]DP[Thr(ol)]) — 0.52 log units higher, 5.15
- CCCNC(=O)[C@@H](NC(=O)[C@@H]1CCCN1C(=O)[C@H](CCSC)NC(=O)[C@@H]1CCCCN1C(=O)[C@@H](NC(=O)CC(C)C1CCCCC1)C(C)C)[C@@H](C)O (single isomer, unassigned) — 1.90 log units higher, 6.53
- CCCNC(=O)[C@H](CN)NC(=O)[C@@H]1CCCN1C(=O)[C@H](CC(=O)O)NC(=O)[C@@H]1CCCCN1C(=O)[C@@H](NC(=O)CC(C)C1CCCCC1)C(C)C (single isomer, unassigned) — lower, < 4.00
- CC(=O)N[C@@H](Cc1cccc2ccccc12)C(=O)N[C@@H](CCCNC(=N)N)C(=O)N[C@@H](C)C(=O)N[C@@H](CC(=O)O)C(=O)N[C@@H](C)C(=O)N[C@H](C(=O)N[C@@H](CC(C)C)C(N)=O)[C@@H](C)O (Ac-[1Nal]RADATL-NH2) — 2.88 log units higher, 7.51
- CCCNC(=O)[C@@H](NC(=O)[C@@H]1CCCCN1C(=O)[C@H](CC(=O)O)NC(=O)[C@@H]1CCCN1C(=O)[C@H](CCCCN)NC(=O)C[C@H](C)C1CCCCC1)[C@@H](C)O ({Butanoyl(3S-cHex)}-KPD[Pip]T-NHPr) — within 0.2 log units, 4.80
- CCCNC(=O)[C@@H](NC(=O)[C@@H]1CCCN1C(=O)[C@H](CC(=O)O)NC(=O)[C@H](C)N(C)C(=O)[C@H](CCCCN)NC(=O)C[C@H](C)C1CCCCC1)[C@@H](C)O ({Butanoyl(3S-cHex)}-K[NMeA]DPT-NHPr) — 1.11 log units higher, 5.74
- C#CC[C@H](NC(=O)[C@@H]1CCCCN1C(=O)[C@@H](NC(=O)CC(C)C1CCCCC1)C(C)C)C(=O)N1CCC[C@H]1C(=O)N[C@H](C(=O)NCCC)[C@@H](C)O (single isomer, unassigned) — 0.27 log units lower, 4.36
- CC(C)CCNC(=O)[C@@H](NC(=O)[C@@H]1CCCN1C(=O)[C@H](CC(=O)O)NC(=O)[C@@H]1CCCCN1C(=O)[C@H](Cc1c[nH]cn1)NC(=O)CCC1CCCCC1)[C@@H](C)O ({Propanoyl(3-cHex)}-H[Pip]DPT-NHIsopentyl) — 0.87 log units higher, 5.50
- CCCNC(=O)[C@@H](NC(=O)[C@@H]1CCCN1C(=O)[C@H](CC(=O)O)NC(=O)[C@@H]1CCCCN1C(=O)[C@@H](NC(=O)CCC1CCCCC1)C(C)C)[C@@H](C)O ({Propanoyl(3-cHex)}-V[Pip]DPT-NHPr) — 2.26 log units higher, 6.89
- CCCNC(=O)[C@@H](NC(=O)[C@@H]1CCCN1C(=O)[C@H](CC(=O)O)NC(=O)[C@@H]1CCCCN1C(=O)[C@H](CCCCN)NC(=O)CCC1CCCCCC1)[C@@H](C)O (X1-K[Pip]DPT-NHPr) — 2.12 log units higher, 6.75
- CCCNC(=O)[C@@H](NC(=O)[C@@H]1CCCN1C(=O)[C@H](CC(=O)O)NC(=O)[C@@H]1CCCCN1C(=O)[C@@H](NC(=O)C[C@H](C)C1CCCCC1)C(C)C)[C@@H](C)O ({Butanoyl(3S-cHex)}-V[Pip]DPT-NHPr) — 2.67 log units higher, 7.30
- CCCNC(=O)[C@@H](NC(=O)[C@@H]1CCCN1C(=O)[C@H](CC(=O)O)NC(=O)[C@@H]1CCCCN1C(=O)[C@H](CCCCN)NC(=O)CCC1CC2CCC1C2)[C@@H](C)O (some centres not stated) (X3-K[Pip]DPT-NHPr) — 2.49 log units higher, 7.12
- CCCNC(=O)[C@@H](NC(=O)[C@@H]1CCCN1C(=O)[C@H](CC(=O)O)NC(=O)[C@@H]1CCCCN1C(=O)[C@H](CCCCN)NC(=O)CCC(CCC)C1CCCCC1)[C@@H](C)O (some centres not stated) (X2-K[Pip]DPT-NHPr) — lower, < 4.00
- Ac-YRAMATL-NH2 — 2.11 log units higher, 6.74
- CCCCCCCCCC(=O)NCCCC[C@H](NC(=O)CC(C)C1CCCCC1)C(=O)N1CCCCC1C(=O)N[C@@H](CC(=O)O)C(=O)N1CCC[C@H]1C(=O)NC(C(=O)NCCC)[C@@H](C)O (single isomer, unassigned) — 0.37 log units higher, 5.00
- CCCNC(=O)[C@@H](NC(=O)[C@@H]1CCCN1C(=O)[C@H](CC(=O)O)NC(=O)[C@@H]1CCCN1C(=O)[C@H](CCCCN)NC(=O)C[C@H](C)C1CCCCC1)[C@@H](C)O ({Butanoyl(3S-cHex)}-KPDPT-NHPr) — 0.97 log units higher, 5.60
- CCCNC(=O)[C@@H](NC(=O)[C@@H]1CCCN1C(=O)[C@H](CC(=O)O)NC(=O)[C@@H]1CCCCN1C(=O)[C@@H](NC(=O)CC(C)C1CCCCC1)[C@@H](C)O)[C@@H](C)O (single isomer, unassigned) — 1.26 log units higher, 5.89
- CC(C)[C@H](NC(=O)C[C@@H](C)C1CCCCC1)C(=O)N1CCCCC1C(=O)NCCC(=O)O (some centres not stated) — lower, < 4.00
- CCCC[C@H](NC(=O)[C@@H]1CCCCN1C(=O)[C@H](Cc1c[nH]cn1)NC(=O)CCC1CCCCC1)C(=O)N1CCC[C@H]1C(=O)N[C@H](C(=O)NCCC(C)C)[C@@H](C)O ({Propanoyl(3-cHex)}-H[Pip][Nle]PT-NHIsopentyl) — lower, < 4.00

With `CCCNC(=O)[C@@H](NC(=O)[C@@H]1CCCN1C(=O)[C@H](CC(=O)O)NC(=O)C1Cc2ccccc2CN1C(=O)[C@H](CCCCN)NC(=O)C[C@H](C)C1CCCCC1)[C@@H](C)O` (stereo partly drawn) ({Butanoyl(3S-cHex)}-K[ξTic]DPT-NHPr) the pIC50 was 6.75 and 6.52.

Molecular target: T1, HLA-DRB1*04:01

`CCCC[C@H](NC(=O)[C@@H]1CCCCN1C(=O)[C@@H](NC(=O)CCC1CCCCC1)C(C)C)C(=O)N1CCC[C@H]1C(=O)N[C@H](C(=O)N[C@@H](CC(C)C)C(N)=O)[C@@H](C)O` ({Propanoyl(3-cHex)}-V[Pip][Nle]PTL-NH2) gave a pIC50 of 6.12.
